# Test system: Human immunodeficiency virus 1
# Experiment: not given
# Assay type: functional, organism-based
# Details: Human immunodeficiency virus 1, RES056, MT4, 120 h
row,Compound,EC50
1,COP(=O)(OC)N1CCc2ccc(Nc3nccc(Oc4c(C)cc(/C=C/C#N)cc4C)n3)cc2C1,> 7.01 µM
2,Cc1cc(/C=C/C#N)cc(C)c1Oc1ccnc(Nc2ccc3c(c2)CN(C(=O)CS(C)(=O)=O)CC3)n1,> 8.64 µM
3,Cc1cc(/C=C/C#N)cc(C)c1Oc1ccnc(Nc2ccc3c(c2)CN(S(C)(=O)=O)CC3)n1,> 4.95 µM
4,Cc1cc(/C=C/C#N)cc(C)c1Oc1ccnc(Nc2ccc3c(c2)CN(C)C3=O)n1,> 40.4 µM
5,Cc1cc(/C=C/C#N)cc(C)c1Oc1ccnc(Nc2ccc3c(c2)CN(S(N)(=O)=O)CC3)n1,6.47 µM
6,Cc1cc(/C=C/C#N)cc(C)c1Oc1ccnc(Nc2ccc3c(c2)OCCO3)n1,> 12.1 µM
7,Cc1cc(/C=C/C#N)cc(C)c1Oc1ccnc(Nc2ccc3c(c2)CCN(CCS(C)(=O)=O)C3)n1,> 4.77 µM
8,Cc1cc(/C=C/C#N)cc(C)c1Oc1ccnc(Nc2ccc3c(C(F)(F)F)cc(=O)oc3c2)n1,> 185 µM
9,Cc1nc2cc(Nc3nccc(Oc4c(C)cc(/C=C/C#N)cc4C)n3)ccc2s1,> 5.31 µM
10,Cc1cc(/C=C/C#N)cc(C)c1Oc1ccnc(Nc2ccc3c(c2)C(=O)NC3)n1,> 103 µM
11,Cc1cc(/C=C/C#N)cc(C)c1Oc1ccnc(Nc2ccc3c(c2)OC(F)(F)O3)n1,5.31 µM
12,Cc1cc(/C=C/C#N)cc(C)c1Oc1ccnc(Nc2ccc3c(c2)CCN(S(C)(=O)=O)C3)n1,> 6.63 µM
13,Cc1cc(/C=C/C#N)cc(C)c1Oc1ccnc(Nc2ccc3c(c2)CN(CC#N)CC3)n1,> 5.85 µM
14,Cc1cc(/C=C/C#N)cc(C)c1Oc1ccnc(Nc2ccc3c(c2)CCN(S(N)(=O)=O)C3)n1,> 6.24 µM
15,Cc1cc(/C=C/C#N)cc(C)c1Oc1ccnc(Nc2ccc3oncc3c2)n1,4.15 µM
16,COP(=O)(OC)N1CCc2cc(Nc3nccc(Oc4c(C)cc(/C=C/C#N)cc4C)n3)ccc2C1,> 4.18 µM

# Test system: not listed separately
# Experiment: Cytotoxicity against human MT4 cells assessed as reduction in cell viability measured after 5 days by MTT assay
# Assay type: toxicity, cell-based
# Details: time 5 day
row,Compound,CC50 at 120 h
1,COP(=O)(OC)N1CCc2ccc(Nc3nccc(Oc4c(C)cc(/C=C/C#N)cc4C)n3)cc2C1,7.01 µM
2,Cc1cc(/C=C/C#N)cc(C)c1Oc1ccnc(Nc2ccc3c(c2)CN(C(=O)CS(C)(=O)=O)CC3)n1,8.64 µM
3,Cc1cc(/C=C/C#N)cc(C)c1Oc1ccnc(Nc2ccc3c(c2)CN(S(C)(=O)=O)CC3)n1,4.95 µM
4,Cc1cc(/C=C/C#N)cc(C)c1Oc1ccnc(Nc2ccc3c(c2)CN(C)C3=O)n1,40.4 µM
5,Cc1cc(/C=C/C#N)cc(C)c1Oc1ccnc(Nc2ccc3c(c2)CN(S(N)(=O)=O)CC3)n1,11.6 µM
6,Cc1cc(/C=C/C#N)cc(C)c1Oc1ccnc(Nc2ccc3c(c2)OCCO3)n1,12.1 µM
7,Cc1cc(/C=C/C#N)cc(C)c1Oc1ccnc(Nc2ccc3c(c2)CCN(CCS(C)(=O)=O)C3)n1,4.77 µM
8,Cc1cc(/C=C/C#N)cc(C)c1Oc1ccnc(Nc2ccc3c(C(F)(F)F)cc(=O)oc3c2)n1,185 µM
9,Cc1nc2cc(Nc3nccc(Oc4c(C)cc(/C=C/C#N)cc4C)n3)ccc2s1,5.31 µM
10,Cc1cc(/C=C/C#N)cc(C)c1Oc1ccnc(Nc2ccc3c(c2)C(=O)NC3)n1,103 µM
11,Cc1cc(/C=C/C#N)cc(C)c1Oc1ccnc(Nc2ccc3c(c2)OC(F)(F)O3)n1,19.2 µM
12,Cc1cc(/C=C/C#N)cc(C)c1Oc1ccnc(Nc2ccc3c(c2)CCN(S(C)(=O)=O)C3)n1,6.63 µM
13,Cc1cc(/C=C/C#N)cc(C)c1Oc1ccnc(Nc2ccc3c(c2)CN(CC#N)CC3)n1,5.85 µM
14,Cc1cc(/C=C/C#N)cc(C)c1Oc1ccnc(Nc2ccc3c(c2)CCN(S(N)(=O)=O)C3)n1,6.24 µM
15,Cc1cc(/C=C/C#N)cc(C)c1Oc1ccnc(Nc2ccc3oncc3c2)n1,17.6 µM
16,COP(=O)(OC)N1CCc2cc(Nc3nccc(Oc4c(C)cc(/C=C/C#N)cc4C)n3)ccc2C1,4.18 µM

# Test system: Human immunodeficiency virus 2
# Experiment: Antiviral activity against HIV-2 ROD infected in human MT4 cells assessed as protection against virus-induced cytopathic effect incubated for 5 days by MTT assay
# Assay type: functional, organism-based
# Details: Human immunodeficiency virus 2, ROD, MT4, 120 h
row,Compound,EC50
1,COP(=O)(OC)N1CCc2ccc(Nc3nccc(Oc4c(C)cc(/C=C/C#N)cc4C)n3)cc2C1,> 7.01 µM
2,Cc1cc(/C=C/C#N)cc(C)c1Oc1ccnc(Nc2ccc3c(c2)CN(C(=O)CS(C)(=O)=O)CC3)n1,> 8.64 µM
3,Cc1cc(/C=C/C#N)cc(C)c1Oc1ccnc(Nc2ccc3c(c2)CN(S(C)(=O)=O)CC3)n1,> 4.95 µM
4,Cc1cc(/C=C/C#N)cc(C)c1Oc1ccnc(Nc2ccc3c(c2)CN(C)C3=O)n1,> 40.4 µM
5,Cc1cc(/C=C/C#N)cc(C)c1Oc1ccnc(Nc2ccc3c(c2)CN(S(N)(=O)=O)CC3)n1,> 11.6 µM
6,Cc1cc(/C=C/C#N)cc(C)c1Oc1ccnc(Nc2ccc3c(c2)OCCO3)n1,> 12.1 µM
7,Cc1cc(/C=C/C#N)cc(C)c1Oc1ccnc(Nc2ccc3c(c2)CCN(CCS(C)(=O)=O)C3)n1,> 4.77 µM
8,Cc1cc(/C=C/C#N)cc(C)c1Oc1ccnc(Nc2ccc3c(C(F)(F)F)cc(=O)oc3c2)n1,> 185 µM
9,Cc1nc2cc(Nc3nccc(Oc4c(C)cc(/C=C/C#N)cc4C)n3)ccc2s1,> 5.31 µM
10,Cc1cc(/C=C/C#N)cc(C)c1Oc1ccnc(Nc2ccc3c(c2)C(=O)NC3)n1,> 103 µM
11,Cc1cc(/C=C/C#N)cc(C)c1Oc1ccnc(Nc2ccc3c(c2)OC(F)(F)O3)n1,> 19.2 µM
12,Cc1cc(/C=C/C#N)cc(C)c1Oc1ccnc(Nc2ccc3c(c2)CCN(S(C)(=O)=O)C3)n1,> 6.63 µM
13,Cc1cc(/C=C/C#N)cc(C)c1Oc1ccnc(Nc2ccc3c(c2)CN(CC#N)CC3)n1,> 5.85 µM
14,Cc1cc(/C=C/C#N)cc(C)c1Oc1ccnc(Nc2ccc3c(c2)CCN(S(N)(=O)=O)C3)n1,> 6.24 µM
15,Cc1cc(/C=C/C#N)cc(C)c1Oc1ccnc(Nc2ccc3oncc3c2)n1,> 17.6 µM
16,COP(=O)(OC)N1CCc2cc(Nc3nccc(Oc4c(C)cc(/C=C/C#N)cc4C)n3)ccc2C1,> 4.18 µM

# Biological target: Human immunodeficiency virus type 1 reverse transcriptase (Human immunodeficiency virus 1, UniProt Q72547)
# Experiment: Inhibition of wild type HIV-1 Reverse transcriptase incubated for 1 hrs by ELISA analysis
# Details: not given
row,Compound,IC50
1,COP(=O)(OC)N1CCc2ccc(Nc3nccc(Oc4c(C)cc(/C=C/C#N)cc4C)n3)cc2C1,0.63 µM
2,Cc1cc(/C=C/C#N)cc(C)c1Oc1ccnc(Nc2ccc3c(c2)CN(C(=O)CS(C)(=O)=O)CC3)n1,0.23 µM
3,Cc1cc(/C=C/C#N)cc(C)c1Oc1ccnc(Nc2ccc3c(c2)CN(S(C)(=O)=O)CC3)n1,0.078 µM
4,Cc1cc(/C=C/C#N)cc(C)c1Oc1ccnc(Nc2ccc3c(c2)CN(C)C3=O)n1,0.63 µM
5,Cc1cc(/C=C/C#N)cc(C)c1Oc1ccnc(Nc2ccc3c(c2)CN(S(N)(=O)=O)CC3)n1,0.11 µM
6,Cc1cc(/C=C/C#N)cc(C)c1Oc1ccnc(Nc2ccc3c(c2)OCCO3)n1,0.05 µM
7,Cc1cc(/C=C/C#N)cc(C)c1Oc1ccnc(Nc2ccc3c(c2)CCN(CCS(C)(=O)=O)C3)n1,0.17 µM
8,Cc1cc(/C=C/C#N)cc(C)c1Oc1ccnc(Nc2ccc3c(C(F)(F)F)cc(=O)oc3c2)n1,0.23 µM
9,Cc1nc2cc(Nc3nccc(Oc4c(C)cc(/C=C/C#N)cc4C)n3)ccc2s1,0.077 µM
10,Cc1cc(/C=C/C#N)cc(C)c1Oc1ccnc(Nc2ccc3c(c2)C(=O)NC3)n1,0.058 µM
11,Cc1cc(/C=C/C#N)cc(C)c1Oc1ccnc(Nc2ccc3c(c2)OC(F)(F)O3)n1,0.09 µM
12,Cc1cc(/C=C/C#N)cc(C)c1Oc1ccnc(Nc2ccc3c(c2)CCN(S(C)(=O)=O)C3)n1,0.1 µM
13,Cc1cc(/C=C/C#N)cc(C)c1Oc1ccnc(Nc2ccc3c(c2)CN(CC#N)CC3)n1,0.25 µM
14,Cc1cc(/C=C/C#N)cc(C)c1Oc1ccnc(Nc2ccc3c(c2)CCN(S(N)(=O)=O)C3)n1,0.055 µM
15,Cc1cc(/C=C/C#N)cc(C)c1Oc1ccnc(Nc2ccc3oncc3c2)n1,0.065 µM
16,COP(=O)(OC)N1CCc2cc(Nc3nccc(Oc4c(C)cc(/C=C/C#N)cc4C)n3)ccc2C1,0.17 µM

# Test system: not listed separately
# Experiment: in vitro
# Details: human, MT4 cells
# Description: Selectivity index, ratio of CC50 for human MT4 cells to EC50 for wild type HIV-1 IIIB infected in human MT4 cells
row,Compound,selectivity ratio
1,COP(=O)(OC)N1CCc2ccc(Nc3nccc(Oc4c(C)cc(/C=C/C#N)cc4C)n3)cc2C1,58
2,Cc1cc(/C=C/C#N)cc(C)c1Oc1ccnc(Nc2ccc3c(c2)CN(C(=O)CS(C)(=O)=O)CC3)n1,524
3,Cc1cc(/C=C/C#N)cc(C)c1Oc1ccnc(Nc2ccc3c(c2)CN(S(C)(=O)=O)CC3)n1,791
4,Cc1cc(/C=C/C#N)cc(C)c1Oc1ccnc(Nc2ccc3c(c2)CN(C)C3=O)n1,1290
5,Cc1cc(/C=C/C#N)cc(C)c1Oc1ccnc(Nc2ccc3c(c2)CN(S(N)(=O)=O)CC3)n1,743
6,Cc1cc(/C=C/C#N)cc(C)c1Oc1ccnc(Nc2ccc3c(c2)OCCO3)n1,855
7,Cc1cc(/C=C/C#N)cc(C)c1Oc1ccnc(Nc2ccc3c(c2)CCN(CCS(C)(=O)=O)C3)n1,256
8,Cc1cc(/C=C/C#N)cc(C)c1Oc1ccnc(Nc2ccc3c(C(F)(F)F)cc(=O)oc3c2)n1,2420
9,Cc1nc2cc(Nc3nccc(Oc4c(C)cc(/C=C/C#N)cc4C)n3)ccc2s1,431
10,Cc1cc(/C=C/C#N)cc(C)c1Oc1ccnc(Nc2ccc3c(c2)C(=O)NC3)n1,16000
11,Cc1cc(/C=C/C#N)cc(C)c1Oc1ccnc(Nc2ccc3c(c2)OC(F)(F)O3)n1,966
12,Cc1cc(/C=C/C#N)cc(C)c1Oc1ccnc(Nc2ccc3c(c2)CCN(S(C)(=O)=O)C3)n1,970
13,Cc1cc(/C=C/C#N)cc(C)c1Oc1ccnc(Nc2ccc3c(c2)CN(CC#N)CC3)n1,159
14,Cc1cc(/C=C/C#N)cc(C)c1Oc1ccnc(Nc2ccc3c(c2)CCN(S(N)(=O)=O)C3)n1,748
15,Cc1cc(/C=C/C#N)cc(C)c1Oc1ccnc(Nc2ccc3oncc3c2)n1,2640
16,COP(=O)(OC)N1CCc2cc(Nc3nccc(Oc4c(C)cc(/C=C/C#N)cc4C)n3)ccc2C1,515

# Test system: not listed separately
# Experiment: in vitro
# Details: human, MT4 cells
# Remark: another data set of the same source
# Description: Selectivity index, ratio of CC50 for human MT4 cells to EC50 for HIV-1 RES056 harboring RT K103N/Y181C mutant infected in human MT4 cells
row,Compound,selectivity ratio
1,Cc1cc(/C=C/C#N)cc(C)c1Oc1ccnc(Nc2ccc3c(c2)CN(C(=O)CS(C)(=O)=O)CC3)n1,1
2,Cc1cc(/C=C/C#N)cc(C)c1Oc1ccnc(Nc2ccc3c(c2)CN(S(N)(=O)=O)CC3)n1,2
3,Cc1cc(/C=C/C#N)cc(C)c1Oc1ccnc(Nc2ccc3c(c2)OC(F)(F)O3)n1,4
4,Cc1cc(/C=C/C#N)cc(C)c1Oc1ccnc(Nc2ccc3oncc3c2)n1,4

# Test system: Human immunodeficiency virus 1
# Experiment: microbe, parasite or virus in culture
# Details: Human immunodeficiency virus 1, IIIB, MT4, 120 h
# Description: Antiviral activity against wild type HIV-1 IIIB infected in human MT4 cells assessed as protection against virus-induced cytopathic effect incubated for 5 days by MTT assay
row,Compound,EC50
1,COP(=O)(OC)N1CCc2ccc(Nc3nccc(Oc4c(C)cc(/C=C/C#N)cc4C)n3)cc2C1,0.12 µM
2,Cc1cc(/C=C/C#N)cc(C)c1Oc1ccnc(Nc2ccc3c(c2)CN(C(=O)CS(C)(=O)=O)CC3)n1,0.017 µM
3,Cc1cc(/C=C/C#N)cc(C)c1Oc1ccnc(Nc2ccc3c(c2)CN(S(C)(=O)=O)CC3)n1,0.006 µM
4,Cc1cc(/C=C/C#N)cc(C)c1Oc1ccnc(Nc2ccc3c(c2)CN(C)C3=O)n1,0.031 µM
5,Cc1cc(/C=C/C#N)cc(C)c1Oc1ccnc(Nc2ccc3c(c2)CN(S(N)(=O)=O)CC3)n1,0.016 µM
6,Cc1cc(/C=C/C#N)cc(C)c1Oc1ccnc(Nc2ccc3c(c2)OCCO3)n1,0.014 µM
7,Cc1cc(/C=C/C#N)cc(C)c1Oc1ccnc(Nc2ccc3c(c2)CCN(CCS(C)(=O)=O)C3)n1,0.019 µM
8,Cc1cc(/C=C/C#N)cc(C)c1Oc1ccnc(Nc2ccc3c(C(F)(F)F)cc(=O)oc3c2)n1,0.076 µM
9,Cc1nc2cc(Nc3nccc(Oc4c(C)cc(/C=C/C#N)cc4C)n3)ccc2s1,0.012 µM
10,Cc1cc(/C=C/C#N)cc(C)c1Oc1ccnc(Nc2ccc3c(c2)C(=O)NC3)n1,0.006 µM
11,Cc1cc(/C=C/C#N)cc(C)c1Oc1ccnc(Nc2ccc3c(c2)OC(F)(F)O3)n1,0.02 µM
12,Cc1cc(/C=C/C#N)cc(C)c1Oc1ccnc(Nc2ccc3c(c2)CCN(S(C)(=O)=O)C3)n1,0.007 µM
13,Cc1cc(/C=C/C#N)cc(C)c1Oc1ccnc(Nc2ccc3c(c2)CN(CC#N)CC3)n1,0.037 µM
14,Cc1cc(/C=C/C#N)cc(C)c1Oc1ccnc(Nc2ccc3c(c2)CCN(S(N)(=O)=O)C3)n1,0.008 µM
15,Cc1cc(/C=C/C#N)cc(C)c1Oc1ccnc(Nc2ccc3oncc3c2)n1,0.007 µM
16,COP(=O)(OC)N1CCc2cc(Nc3nccc(Oc4c(C)cc(/C=C/C#N)cc4C)n3)ccc2C1,0.008 µM
